Molecular target: T1, SIRT1 (Homo sapiens, UniProt Q96EB6)
T1 sequence (Q96EB6 1-747): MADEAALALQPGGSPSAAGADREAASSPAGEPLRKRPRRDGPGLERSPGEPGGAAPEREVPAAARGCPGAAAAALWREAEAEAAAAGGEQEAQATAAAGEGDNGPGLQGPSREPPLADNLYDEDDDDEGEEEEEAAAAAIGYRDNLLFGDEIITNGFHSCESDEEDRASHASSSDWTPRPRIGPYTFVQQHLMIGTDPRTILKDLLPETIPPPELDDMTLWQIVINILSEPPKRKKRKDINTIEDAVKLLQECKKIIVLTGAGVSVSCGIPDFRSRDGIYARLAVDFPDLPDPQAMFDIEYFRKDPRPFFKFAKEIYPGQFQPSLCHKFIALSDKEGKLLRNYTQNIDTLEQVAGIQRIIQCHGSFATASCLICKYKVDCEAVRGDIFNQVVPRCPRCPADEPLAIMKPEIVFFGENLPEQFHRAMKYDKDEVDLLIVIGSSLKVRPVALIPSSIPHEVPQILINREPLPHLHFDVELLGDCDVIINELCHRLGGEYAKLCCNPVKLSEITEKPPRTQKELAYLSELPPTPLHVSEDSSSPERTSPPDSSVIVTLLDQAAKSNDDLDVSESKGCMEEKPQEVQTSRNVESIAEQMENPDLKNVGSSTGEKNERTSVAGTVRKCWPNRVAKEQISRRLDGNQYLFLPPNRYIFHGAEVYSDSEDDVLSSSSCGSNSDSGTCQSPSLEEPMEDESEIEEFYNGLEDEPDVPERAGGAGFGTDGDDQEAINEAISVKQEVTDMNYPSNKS
Assay: Mass spectrometry based SIRT1 deacetylase activation assay
Format: biochemical
Details: for EC1.5 μM: 0.5 μM peptide substrate, 120 μM βNAD+, 10 nM SIRT1, 25 min, 25° C.; for Emax: 25 min, mass spectrometry assay, read-out: % Fold Act. (percent maximum fold activation)

Row | EC1.5 μM | Emax [%] | SMILES
1 | A (EC1-5<1.0) | > 200 | O=C(Nc1cccc2c(=O)cc(-c3ccccc3Cl)oc12)c1cnccn1 [Compound 280]
2 | B (EC1.5 1-25 μM) | > 200 | Cn1ccc(C(=O)Nc2cccc3c(=O)cc(-c4ccccc4C(F)(F)F)oc23)n1 [Compound 259]
3 | B (EC1.5 1-25 μM) | > 200 | Cn1cncc1C(=O)Nc1cccc2c(=O)cc(-c3ccccc3C(F)(F)F)oc12 [Compound 277]
4 | C (EC1.5>25 μM) | < 200 | Cc1cnc(NC(=O)c2cccc3c(=O)cc(-c4cccnc4)oc23)s1 [Compound 239]
5 | C (EC1.5>25 μM) | < 200 | CS(=O)(=O)c1cccc(-c2cc(=O)c3cccc(NC(=O)c4cscn4)c3o2)c1 [Compound 222]
6 | C (EC1.5>25 μM) | < 200 | O=C(Nc1cccc2c(=O)cc(-c3cccnc3)oc12)c1cnccn1 [Compound 217]
7 | C (EC1.5>25 μM) | < 200 | O=C(Nc1cccc2c(=O)cc(-c3cccc(C(F)(F)F)c3)oc12)c1cccnc1 [Compound 226]
8 | B (EC1.5 1-25 μM) | > 200 | O=C(Nc1cccc2c(=O)cc(-c3cccc(C(F)(F)F)c3)oc12)c1cccc(OC[C@@H](O)CO)n1 [Compound 244]
9 | A (EC1-5<1.0) | > 200 | Cc1ncoc1C(=O)Nc1cccc2c(=O)cc(-c3ccccc3C(F)(F)F)oc12 [Compound 268]
10 | B (EC1.5 1-25 μM) | > 200 | O=C(Nc1cccc(CN2CCCC2)n1)c1cccc2c(=O)cc(-c3cccc(C(F)(F)F)c3)oc12 [Compound 243, 4-oxo-N-(6-(pyrrolidin-1-ylmethyl)pyridin-2-yl)-2-(3-(trifluoromethyl)phenyl)-4H-chromene-8-carboxamide]
11 | A (EC1-5<1.0) | > 200 | O=C(Nc1cccc2c(=O)cc(-c3ccccc3C(F)(F)F)oc12)c1ccccn1 [Compound 251]
12 | C (EC1.5>25 μM) | < 200 | O=C(Nc1cccc2c(=O)cc(-c3ccccc3)oc12)c1cscn1 [Compound 200]
13 |  | > 200 | O=C(Nc1cccc2c(=O)cc(-c3ccccc3Br)oc12)c1cscn1 [Compound 231]
14 | A (EC1-5<1.0) | > 200 | O=C(Nc1cccc2c(=O)cc(-c3ccccc3C(F)F)oc12)c1cscn1 [Compound 283]
15 | C (EC1.5>25 μM) | < 200 | O=C(Nc1cccc2c(=O)cc(-c3ccccc3OC(F)F)oc12)c1cscn1 [Compound 264]
16 | B (EC1.5 1-25 μM) | < 200 | Cc1cnc(NC(=O)c2cccc3c(=O)cc(-c4ccccc4OC(F)F)oc23)s1 [Compound 294]
17 | A (EC1-5<1.0) | > 200 | O=C(Nc1cccc2c(=O)cc(-c3ccccc3Cl)oc12)c1cccc(N2CCOCC2)n1 [Compound 324]

Source: patent US8987258B2 (priority 2008, dated 2015)
